We go through one sequence from patent US12374421B2, “Bioinformatic processes for determination of peptide binding” (priority 2013, dated 2025).

The subject of test [1] is MHC I molecules. The conditions noted are these: in vivo; cited from earlier work.
In test [2] the test system is RL9-pulsed splenocytes. On the set-up: species or system mice. The conditions noted are these: mouse, in vivo.

Turning to RYCINSASL (SEQ ID NO: 28419) [RL9], the “MHC I presentation” value in test [1] is reported as “presented on MHC I molecules”. The “response pattern after immunization” value in test [2] is reported as “protective response pattern”.
